Data on four compounds can be found in US10023568B2, “Naphthyridine derivatives useful as αvβ6 integrin antagonists” (GlaxoSmithKline Intellectual Property Development Limited, priority 2013, dated 2018).

The target in series [1] is T1, αvβ6 (Homo sapiens, UniProt P06756+P18564).
T1 construct: expressed in transfected cells; host or cells: K562-αvβ6
In words: Cell Adhesion Assay K562-αvβ6 (LAP-b1). In kind it is cell-based. The note with it: K562-αvβ6 cells, ligand LAP-b1, 2 mM MgCl2; read-out: affinity in the cell Adhesion Assays αvβ6 pIC50 (converted). On the procedure: (§1) The following cell lines were used, with ligands in brackets: K562-α5β1 (Fibronectin), K562-αvβ3 (LAP-b1), K562-αvβ5 (Vitronectin), K562-αvβ6 (LAP-b1), K562-αvβ8 (LAP-b1). The divalent cation used to facilitate adhesion was 2 mM MgCl2. Adhesion was quantified by cell labelling with the fluorescent dye BCECF-AM (Life Technologies), where cell suspensions at 6×10^6 cells/mL were incubated with […] of 30 mM BCECF-AM at 37° C. for 10 minutes, before dispensing into the assay plate. At the assay conclusion cells that adhered were lysed using 50 μL/well of 0.5% Triton X-100 in H2O to release fluorescence. Fluorescence intensity was detected using an Envision® plate reader (Perkin Elmer). For active antagonists in the assay, data were fitted to a 4 parameter logistic equation for IC50 determinations.

Series [2] deals with T2, αvβ3 (Homo sapiens, UniProt P05106+P06756).
T2 construct: expressed in transfected cells; host or cells: K562-αvβ3
T2 sequence (P06756 31-1048): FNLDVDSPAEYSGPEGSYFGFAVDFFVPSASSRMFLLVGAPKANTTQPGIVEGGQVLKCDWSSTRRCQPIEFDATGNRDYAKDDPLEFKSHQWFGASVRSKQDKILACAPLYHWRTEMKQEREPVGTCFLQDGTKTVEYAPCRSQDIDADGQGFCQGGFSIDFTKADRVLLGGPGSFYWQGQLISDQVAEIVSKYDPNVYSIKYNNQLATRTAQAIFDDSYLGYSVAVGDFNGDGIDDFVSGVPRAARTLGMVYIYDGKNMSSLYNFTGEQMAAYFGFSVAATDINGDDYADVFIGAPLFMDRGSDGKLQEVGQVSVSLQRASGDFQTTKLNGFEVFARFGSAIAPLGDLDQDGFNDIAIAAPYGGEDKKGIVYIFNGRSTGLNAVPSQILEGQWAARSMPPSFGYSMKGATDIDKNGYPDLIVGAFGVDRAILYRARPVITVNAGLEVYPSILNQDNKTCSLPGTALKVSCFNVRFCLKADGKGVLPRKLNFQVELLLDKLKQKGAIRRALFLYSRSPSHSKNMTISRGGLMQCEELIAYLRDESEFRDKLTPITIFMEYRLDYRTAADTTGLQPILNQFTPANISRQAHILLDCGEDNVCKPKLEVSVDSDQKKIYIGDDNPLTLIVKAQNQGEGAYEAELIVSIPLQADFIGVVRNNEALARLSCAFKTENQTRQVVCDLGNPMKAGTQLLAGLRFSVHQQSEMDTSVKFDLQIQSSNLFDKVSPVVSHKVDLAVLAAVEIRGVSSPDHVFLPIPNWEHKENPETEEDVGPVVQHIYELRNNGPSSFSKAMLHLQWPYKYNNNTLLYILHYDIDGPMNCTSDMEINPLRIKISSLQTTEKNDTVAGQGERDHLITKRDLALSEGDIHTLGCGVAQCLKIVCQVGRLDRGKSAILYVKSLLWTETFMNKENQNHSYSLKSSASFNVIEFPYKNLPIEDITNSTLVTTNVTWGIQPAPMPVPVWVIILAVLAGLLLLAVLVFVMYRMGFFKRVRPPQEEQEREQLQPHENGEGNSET
T2 sequence (P05106 27-788): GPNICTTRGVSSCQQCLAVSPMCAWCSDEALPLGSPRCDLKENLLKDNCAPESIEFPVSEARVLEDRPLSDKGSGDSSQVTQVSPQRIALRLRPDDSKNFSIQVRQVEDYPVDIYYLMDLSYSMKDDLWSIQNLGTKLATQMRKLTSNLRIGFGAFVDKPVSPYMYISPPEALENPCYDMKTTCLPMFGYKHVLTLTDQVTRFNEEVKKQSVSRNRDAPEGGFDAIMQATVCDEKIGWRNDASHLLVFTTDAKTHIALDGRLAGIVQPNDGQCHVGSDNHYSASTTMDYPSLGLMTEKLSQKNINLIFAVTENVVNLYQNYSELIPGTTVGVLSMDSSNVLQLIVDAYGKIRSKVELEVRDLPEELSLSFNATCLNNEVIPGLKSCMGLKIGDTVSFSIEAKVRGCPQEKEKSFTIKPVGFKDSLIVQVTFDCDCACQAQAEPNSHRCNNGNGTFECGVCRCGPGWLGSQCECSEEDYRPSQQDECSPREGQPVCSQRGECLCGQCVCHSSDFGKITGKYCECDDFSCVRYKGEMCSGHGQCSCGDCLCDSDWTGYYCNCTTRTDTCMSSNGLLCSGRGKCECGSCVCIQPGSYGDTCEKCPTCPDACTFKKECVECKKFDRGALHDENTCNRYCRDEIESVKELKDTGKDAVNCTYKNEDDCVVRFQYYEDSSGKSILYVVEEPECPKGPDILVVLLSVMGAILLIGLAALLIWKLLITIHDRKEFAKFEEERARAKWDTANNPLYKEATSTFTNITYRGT
In words: Cell Adhesion Assay K562-αvβ3 (LAP-b1). It is filed as cell-based. The following applies: K562-αvβ3 cells, ligand LAP-b1, 2 mM MgCl2; read-out: affinity in the cell Adhesion Assays αvβ3 pIC50 (converted). On the procedure: as §1

For series [3], the target named is T3, αvβ5 (Homo sapiens, UniProt P06756+P18084).
T3 construct: expressed in transfected cells; host or cells: K562-αvβ5
T3 sequence (P06756 31-1048): as the sequence (P06756 31-1048) above
T3 sequence (P18084 24-799): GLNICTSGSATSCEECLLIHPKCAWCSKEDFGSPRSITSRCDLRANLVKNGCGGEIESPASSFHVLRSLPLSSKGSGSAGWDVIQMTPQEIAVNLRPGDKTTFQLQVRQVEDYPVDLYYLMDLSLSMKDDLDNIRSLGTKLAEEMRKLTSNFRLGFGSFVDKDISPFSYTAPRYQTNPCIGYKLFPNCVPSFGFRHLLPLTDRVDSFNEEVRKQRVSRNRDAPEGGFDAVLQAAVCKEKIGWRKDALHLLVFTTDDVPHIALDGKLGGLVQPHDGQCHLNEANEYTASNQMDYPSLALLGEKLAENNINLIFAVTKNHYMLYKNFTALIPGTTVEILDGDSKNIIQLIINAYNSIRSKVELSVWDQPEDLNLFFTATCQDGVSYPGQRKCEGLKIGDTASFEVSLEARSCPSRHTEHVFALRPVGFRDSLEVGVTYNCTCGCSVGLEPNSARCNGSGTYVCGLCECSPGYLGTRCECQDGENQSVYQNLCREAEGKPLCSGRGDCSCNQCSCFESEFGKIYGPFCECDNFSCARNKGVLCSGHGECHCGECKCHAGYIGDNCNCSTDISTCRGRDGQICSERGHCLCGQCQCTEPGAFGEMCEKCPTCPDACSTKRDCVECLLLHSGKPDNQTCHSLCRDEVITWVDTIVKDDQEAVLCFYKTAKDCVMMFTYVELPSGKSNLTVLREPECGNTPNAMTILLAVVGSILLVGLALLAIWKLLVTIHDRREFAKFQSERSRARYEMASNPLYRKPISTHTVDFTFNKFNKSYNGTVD
In words: Cell Adhesion Assay K562-αvβ5 (Vitronectin). In kind it is cell-based. The following applies: K562-αvβ5 cells, ligand Vitronectin, 2 mM MgCl2; read-out: affinity in the cell Adhesion Assays αvβ5 pIC50 (converted). On the procedure: as §1

Series [4] concerns the target T4, human soluble αvβ6 protein (Homo sapiens, UniProt P06756+P18564).
T4 construct: The expressed protein contained amino acid 31-987 of αv followed by a Tev cleavage site; Tev cleavage site (C); 6His tag (C); Prescission protease site (C); FLAG tag (C); made in house; host or cells: baculovirus expression system (pFastBac dual construct)
The series is described as follows: Fluorescence Polarisation Assay, binding of human soluble αvβ6 protein to an RGD-containing peptide. The note with it: read-out: affinity (pIC50) for the human αvβ6 protein in the Fluorescence Polarisation Assay (converted). From the text:
Binding of human soluble αvβ6 protein to an RGD-containing Peptide by Fluorescence Polarisation Assay:
The extracellular domains of αv and β6 were co-expressed from a pFastBac dual construct using the baculovirus expression system. […] The protein was secreted into the media on expression; it was purified using diafiltration followed by purification using the His tag followed by the FLAG tag and then size exclusion chromatography. […] A fluorescent binding peptide based on LAPβ3 was synthesised chemically, having the sequence Ac-[…](Cy3B)-NH2. An assay buffer of 25 mM HEPES pH7.4, 150 mM NaCl, 1 mM CHAPS and […] was used. To black low volume 384 well plates were added […] of test compound in 100% DMSO, followed by […] αvβ6 protein. Plates were incubated at room temperature for 15 minutes before addition of […] fluorescent RGD-containing peptide. […] For active antagonists in the assay, data were fitted to a 4 parameter logistic equation for IC50 determinations.
For orientation: Fluorescence polarisation rises when a labelled molecule tumbles more slowly, as on binding a larger partner.

For series [5], the target named is T5, αvβ8 (Homo sapiens, UniProt P06756+P26012).
T5 construct: expressed in transfected cells; host or cells: K562-αvβ8
T5 sequence (P06756 31-1048): as the sequence (P06756 31-1048) above
T5 sequence (P26012 43-769): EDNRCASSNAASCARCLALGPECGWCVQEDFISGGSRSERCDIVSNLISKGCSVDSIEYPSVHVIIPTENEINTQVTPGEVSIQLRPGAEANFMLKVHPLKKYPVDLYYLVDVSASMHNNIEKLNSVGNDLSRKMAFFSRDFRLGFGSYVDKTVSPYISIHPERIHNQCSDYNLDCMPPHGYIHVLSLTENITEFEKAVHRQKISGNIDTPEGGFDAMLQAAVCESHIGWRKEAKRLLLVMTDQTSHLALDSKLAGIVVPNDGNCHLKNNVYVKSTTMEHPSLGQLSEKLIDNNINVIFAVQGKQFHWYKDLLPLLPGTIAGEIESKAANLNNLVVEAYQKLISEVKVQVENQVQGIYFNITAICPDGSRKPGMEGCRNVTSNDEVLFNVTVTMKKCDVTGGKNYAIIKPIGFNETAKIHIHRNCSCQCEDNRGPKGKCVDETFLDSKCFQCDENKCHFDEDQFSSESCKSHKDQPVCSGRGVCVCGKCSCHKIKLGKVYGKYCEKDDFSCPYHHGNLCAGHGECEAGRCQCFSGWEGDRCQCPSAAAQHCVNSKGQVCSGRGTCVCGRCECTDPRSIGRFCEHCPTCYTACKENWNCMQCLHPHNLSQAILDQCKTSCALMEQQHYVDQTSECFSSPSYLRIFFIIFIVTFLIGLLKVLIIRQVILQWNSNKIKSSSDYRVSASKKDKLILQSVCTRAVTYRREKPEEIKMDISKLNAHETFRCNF
The series is described as follows: Cell Adhesion Assay K562-αvβ8 (LAP-b1). It is filed as cell-based. The following applies: K562-αvβ8 cells, ligand LAP-b1, 2 mM MgCl2; read-out: affinity in the cell Adhesion Assays αvβ8 pIC50 (converted). How it is done:
as §1

Series [6] can be described thus: physchem. The following applies: kinetic from dmso stock. How it is done: The Chemiluminescent nitrogen detection (CLND) kinetic solubility was measured according to N. Bhattachar et. al. J. Pharm. Biomed.

In brackets after ≈: the same amount, converted by molar mass.

T1 sequence (P06756 31-1048): as the sequence (P06756 31-1048) above
T1 sequence (P18564 22-788): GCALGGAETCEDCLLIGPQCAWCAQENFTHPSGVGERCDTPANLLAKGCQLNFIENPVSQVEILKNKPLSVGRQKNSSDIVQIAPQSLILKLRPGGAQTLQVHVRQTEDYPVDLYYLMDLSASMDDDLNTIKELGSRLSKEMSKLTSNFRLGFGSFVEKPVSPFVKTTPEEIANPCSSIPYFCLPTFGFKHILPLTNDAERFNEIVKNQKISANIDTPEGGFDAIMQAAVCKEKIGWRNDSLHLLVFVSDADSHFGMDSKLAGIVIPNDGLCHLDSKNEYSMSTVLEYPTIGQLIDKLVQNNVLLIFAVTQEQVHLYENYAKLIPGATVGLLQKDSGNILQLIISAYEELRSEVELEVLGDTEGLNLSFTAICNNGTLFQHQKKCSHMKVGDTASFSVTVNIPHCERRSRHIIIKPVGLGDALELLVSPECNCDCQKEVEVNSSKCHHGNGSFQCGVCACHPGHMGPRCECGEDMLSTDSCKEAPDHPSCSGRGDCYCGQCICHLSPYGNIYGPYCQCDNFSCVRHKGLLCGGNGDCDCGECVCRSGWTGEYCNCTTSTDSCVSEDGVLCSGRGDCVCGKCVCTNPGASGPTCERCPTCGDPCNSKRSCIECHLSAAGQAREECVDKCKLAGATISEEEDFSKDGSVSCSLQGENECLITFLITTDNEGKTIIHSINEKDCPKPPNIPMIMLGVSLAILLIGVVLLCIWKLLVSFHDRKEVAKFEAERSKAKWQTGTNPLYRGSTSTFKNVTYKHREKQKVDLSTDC

Usually kinetic solubility stands for solubility judged after dilution from a stock solution rather than from solid. Take `CCc1cc(CC)n(-c2cccc(C(CC(=O)O)CN3CC[C@@H](CCc4ccc5c(n4)NCCC5)C3)c2)n1` (stereo partly drawn) [Example 5, 3-(3-(3,5-Diethyl-1H-pyrazol-1-yl)phenyl)-4-((R)-3-(2-(5,6,7,8-tetrahydro-1,8-naphthyridin-2-yl)ethyl)pyrrolidin-1-yl)butanoic acid]: the IC50 in series [1] is 0.00794 µM; in series [2] it was 0.794 µM; in series [3], 0.251 µM; in series [4], 0.0158 µM; in series [5], 0.0398 µM. Moreover, the solubility (kinetic) in series [6] amounted to 470 µM (≈ 242 µg/mL).
Consider `O=C(O)CC(CN1CC[C@@H](CCc2ccc3c(n2)NCCC3)C1)c1cccc(-n2cccn2)c1` (stereo partly drawn) [Example 4, 3-(3-(1H-Pyrazol-1-yl)phenyl)-4-((R)-3-(2-(5,6,7,8-tetrahydro-1,8-naphthyridin-2-yl)ethyl)pyrrolidin-1-yl)butanoic acid], for which, in series [6], the kinetic solubility is 388 µM (≈ 178 µg/mL).
On to `CCc1cc(C)nn1-c1cccc(C(CC(=O)O)CN2CC[C@@H](CCc3ccc4c(n3)NCCC4)C2)c1` (stereo partly drawn) [Example 3, 3-(3-(5-Ethyl-3-methyl-1H-pyrazol-1-yl)phenyl)-4-((R)-3-(2-(5,6,7,8-tetrahyrdro-1,8-naphthyridin-2-yl)ethyl)pyrrolidin-1-yl)butanoic acid], for which the IC50 in series [1] was 0.00794 µM; in series [2], 1 µM; in series [3], 0.126 µM; in series [4] it was 0.00631 µM; in series [5], 0.02 µM. Also, the kinetic solubility in series [6] was 276 µM (≈ 138 µg/mL).
For the compound `Cc1nn(-c2cccc(C(CC(=O)O)CN3CC[C@@H](CCc4ccc5c(n4)NCCC5)C3)c2)c(C)c1F` (stereo partly drawn) [Example 6, 3-(3-(4-Fluoro-3,5-dimethyl-1H-pyrazol-1-yl)phenyl)-4-((R)-3-(2-(5,6,7,8-tetrahydro-1,8-naphthyridin-2-yl)ethyl)pyrrolidin-1-yl)butanoic acid], the IC50 in series [1] was 0.00794 µM; in series [2] it was 1.58 µM; in series [3], 0.251 µM; in series [4] it was 0.02 µM; in series [5], 0.0501 µM. In series [6], this compound returned a solubility (kinetic) of 437 µM (≈ 221 µg/mL).
